pKi: −log10 of the molar value. Counter-ions that a name gives are not always drawn.
Tests used:
serotonin 2 receptor = serotonin 2 receptor (Rattus norvegicus, UniProt P14842); assay: Binding test on [3H] ketanserin (serotonin 2 receptor); details: [3H] ketanserin 0.3 nM, receptor fraction of rat cerebral cortex; read-out: 5HT2
serotonin 1A receptor = target: T1, serotonin 1A receptor (Rattus norvegicus, UniProt P19327); assay: Binding test on [3H] 8-hydroxy-dipropylaminotetralin (serotonin 1A receptor); details: [3H] 8-OH-DPAT 0.5 nM, receptor fraction of rat hippocampus; read-out: 5HT1a
T1 construct: To the receptor fraction of the hippocampus were added a test compound and 0.5 nM of [^3H]; 8-hydroxy-dipropylaminotetralin; from tissue; host or cells: SD rat hippocampus, membrane (receptor) fraction
T1 sequence (P19327 1-422): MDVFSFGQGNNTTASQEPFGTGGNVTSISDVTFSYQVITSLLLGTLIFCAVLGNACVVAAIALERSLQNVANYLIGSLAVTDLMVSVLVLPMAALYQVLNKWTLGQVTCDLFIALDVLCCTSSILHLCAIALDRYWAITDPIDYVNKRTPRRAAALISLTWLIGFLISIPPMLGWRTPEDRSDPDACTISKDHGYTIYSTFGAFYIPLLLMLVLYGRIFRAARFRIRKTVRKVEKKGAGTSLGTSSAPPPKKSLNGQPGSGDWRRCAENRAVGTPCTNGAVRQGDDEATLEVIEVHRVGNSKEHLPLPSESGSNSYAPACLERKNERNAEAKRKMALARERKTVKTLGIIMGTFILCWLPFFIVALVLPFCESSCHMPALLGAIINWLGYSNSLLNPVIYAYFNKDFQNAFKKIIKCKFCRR

Sequence of serotonin 2 receptor (P14842 whole entry): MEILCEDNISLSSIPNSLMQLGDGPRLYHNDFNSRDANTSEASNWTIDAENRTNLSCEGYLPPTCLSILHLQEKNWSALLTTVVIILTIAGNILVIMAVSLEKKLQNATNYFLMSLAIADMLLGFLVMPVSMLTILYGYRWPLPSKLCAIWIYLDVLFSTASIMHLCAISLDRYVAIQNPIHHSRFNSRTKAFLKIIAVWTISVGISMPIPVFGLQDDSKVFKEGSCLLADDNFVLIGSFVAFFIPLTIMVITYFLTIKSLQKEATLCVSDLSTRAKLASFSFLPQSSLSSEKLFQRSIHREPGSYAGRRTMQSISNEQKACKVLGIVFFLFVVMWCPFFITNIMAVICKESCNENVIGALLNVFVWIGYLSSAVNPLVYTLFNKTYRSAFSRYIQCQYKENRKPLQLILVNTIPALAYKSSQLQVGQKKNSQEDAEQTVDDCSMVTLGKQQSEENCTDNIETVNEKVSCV

pKi (serotonin 2 receptor)	pKi (serotonin 1A receptor)	SMILES
7.82	9.70	CS(=O)(=O)Oc1ccc2c(c1)N(C1CCN(CCc3ccc(F)cc3)CC1)CC2 [Example 122, 1-[1-(4-fluorophenethyl)piperidin-4-yl]-6-methanesulfonyloxyindoline]
8.31	8.60	Fc1ccc(CCN2CCC(N3CCc4ccc(Cn5cccc5)cc43)CC2)cc1 [Example 210, 1-[1-(4-fluorophenethyl)piperidin-4-yl]-6-(pyrrol-1-yl)methylindoline]
8.33	8.16	O=C1CSC(=O)N1Cc1ccc2c(c1)N(C1CCN(CCc3ccc(F)cc3)CC1)CC2 [Example 209, 1-[1-(4-fluorophenethyl)piperidin-4-yl]-6-(2,4-thiazolidinedion-3-yl)methylindoline]
8.60	7.99	OC(c1ccncc1)c1ccc2c(c1)N(C1CCN(CCc3ccc(F)cc3)CC1)CC2 (stereo not drawn) [Example 178]
7.51	7.71	COc1cc2c(cc1Cl)CCN2C1CCN(CCc2ccc(F)cc2)CC1 [Example 219, 1-[1-(4-fluorophenethyl)piperidin-4-yl]-5-chloro-6-methoxyindoline]
7.90	8.30	Cc1ncsc1CCN1CCC(N2CCc3ccccc32)CC1 [Example 61, 1-[1-(4-methyl-5-thiazolethyl)piperidin-4-yl]indoline]
8.04	9.31	O=Cc1ccc2c(c1)N(C1CCN(CCc3ccc(F)cc3)CC1)CC2 [Example 130, 1-[1-(4-fluorophenethyl)piperidin-4-yl]-6-formylindoline]
9.39	9.77	Fc1ccc(CCN2CCC(N3CCc4ccc(Cc5ccncc5)cc43)CC2)cc1 [Example 179, 1-[1-(4-fluorophenethyl)piperidin-4-yl]-6-(4-pyridylmethyl)indoline]
7.79	7.72	Fc1ccc(CCN2CCC(CCN3CCc4ccccc43)CC2)cc1 [Example 17, 1-{2-[1-(4-fluorophenethyl)piperidin-4-yl]ethyl}indoline]
9.80	7.89	CCCNC(=O)Cc1ccc2c(c1)N(C1CCN(CCc3ccc(F)cc3)CC1)CC2 [Example 150, 1-[1-(4-fluorophenethyl)piperidin-4-yl]-6-(n-propylcarbamoylmethyl)indoline]
9.80	8.09	CC(C)C(=O)NCc1ccc2c(c1)N(C1CCN(CCc3ccc(F)cc3)CC1)CC2 [Example 158, 1-[1-(4-fluorophenethyl)piperidin-4-yl]-6-isobutyrylaminomethylindoline]
7.40	7.33	Brc1cnn(CCN2CCC(N3CCc4ccccc43)CC2)c1 [Example 68, 1-{1-[2-(4-bromopyrazol-1-yl)ethyl]piperidin-4-yl}indoline]
9.21	8.55	Fc1ccc(CCN2CCC(C3CCc4cccnc43)CC2)cc1 (stereo not drawn) [Example 257, 7-[1-(4-fluorophenethyl)piperidin-4-yl]-5,6-dihydro-7H-pyrindine]
6.87	< 6.70	CCN1CC[C@H](N2CCc3ccccc32)[C@H](COc2ccc(F)cc2)C1 (relative stereo) [Example 84, cis-1-[1-ethyl-3-(4-fluorophenoxymethyl)piperidin-4-yl]indoline]
8.38	8.96	c1ccc2c(c1)CCN2C1CCN(CCc2ccc3c(c2)OCO3)CC1 [Example 46, 1-{1-[3,4-(methylenedioxy)phenethyl]piperidin-4-yl}indoline]
8.64	< 6.70	CCN1CCC(N2CC(Cc3ccc(OC)cc3)c3ccccc32)CC1 (stereo not drawn) [Example 242, 1-(1-ethylpiperidin-4-yl)-3-(4-methoxybenzyl)indoline]
9.00	6.90	COc1ccc(CC2CN(C3CCN(CCc4ccc(F)cc4)CC3)c3ccccc32)cc1 (stereo not drawn) [Example 215, 1-[1-(4-fluorophenethyl)piperidin-4-yl]-3-(4-methoxybenzyl)indoline]
7.76	8.35	Clc1ccc(CCN2CCC(N3CCc4ccccc43)CC2)cc1 [Example 6, 1-[1-(4-chlorophenethyl)piperidin-4-yl]indoline]

pKi (serotonin 2 receptor)	pKi (serotonin 1A receptor)	SMILES
8.29	8.51	CC(=O)NCc1ccc2c(c1)N(C1CCN(CCc3ccc(F)cc3F)CC1)CC2 [Example 224, 1-[1-(2,4-difluorophenethyl)piperidin-4-yl]-6-acetamidomethylindoline]
7.28	9.92	Fc1ccc(CCN2CCC(N3CCc4ccc(-c5nccs5)cc43)CC2)cc1 [Example 172, 1-[1-(4-fluorophenethyl)piperidin-4-yl]-6-(2-thiazolyl)indoline]
7.37	8.72	N#Cc1ccc(CCN2CCC(N3CCc4ccccc43)CC2)cc1 [Example 21, 1-[1-(4-cyanophenethyl)piperidin-4-yl]indoline]
8.93	8.78	OC(c1ccc2c(c1)N(C1CCN(CCc3ccc(F)cc3)CC1)CC2)c1cncs1 (stereo not drawn) [Example 196, 1-[1-(4-fluorophenethyl)piperidin-4-yl]-6-[1-(5-thiazolyl)-1-hydroxymethyl]indoline]
9.04	9.60	Fc1ccc(CCN2CCC(N3CCc4ccc(Cc5cccnc5)cc43)CC2)cc1 [Example 177, 1-[1-(4-fluorophenethyl)piperidin-4-yl]-6-[1-(3-pyridyl)methyl]indoline]
7.97	9.22	CCS(=O)(=O)Nc1ccc2c(c1)N(C1CCN(CCc3ccc(F)cc3)CC1)CC2 [Example 117, 1-[1-(4-fluorophenethyl)piperidin-4-yl]-6-ethanesulfonylaminoindoline]
9.74	8.39	CCCC(=O)NCc1ccc2c(c1)N(C1CCN(CCc3ccc(F)cc3)CC1)CC2 [Example 157, 1-[1-(4-fluorophenethyl)piperidin-4-yl]-6-(n-butyryl)aminomethylindoline]
7.47	7.60	CC1CC(=C2CCN(CCc3ccc(F)cc3)CC2)c2nccnc21 (stereo not drawn) [Example 265, 5-[1-(4-fluorophenethyl)piperidin-4-ylidene]-7-methyl-5,6-dihydrocyclopentapyrazine]
8.93	8.17	O=C(Cc1ccc2ccn(C3CCN(CCc4ccc(F)cc4)CC3)c2c1)NCCc1ccccn1 [Example 315, 1-[1-(4-fluorophenethyl)piperidin-4-yl]-6-[2-(pyridin-2-yl)ethyl]carbamoylmethylindole Oxalate]
7.80	7.66	Nc1ccc(CCN2CCC(N3CCc4ccccc43)CC2)cc1 [Example 30, 1-[1-(4-aminophenethyl)piperidin-4-yl]indoline]
7.79	8.65	Fc1ccc(CCN2CCC(n3ccc4ccccc43)CC2)c(F)n1 [Example 332, 1-[1-(2,6-difluoro-3-pyridylethyl)piperidin-4-yl]indole]
8.92	9.28	Fc1ccc(CCN2CCC(N3CCc4ccc(Cn5ccnc5)cc43)CC2)cc1 [Example 211, 1-[1-(4-fluorophenethyl)piperidin-4-yl]-6-(imidazol-1-yl)methylindoline]
7.79	7.32	CN1CCC(Cc2ccc3c(c2)N(C2CCN(CCc4ccc(F)cc4)CC2)CC3)CC1 [Example 170, 1-[1-(4-fluorophenethyl)piperidin-4-yl]-6-[(1-methylpiperidin-4-yl)methyl]indoline]
7.63	8.24	CN(C)c1ccc2c(c1)N(C1CCN(CCc3ccc(F)cc3)CC1)CC2 [Example 114, 1-[1-(4-fluorophenethyl)piperidin-4-yl]-6-dimethylaminoindoline]
7.57	6.58	c1ccc2c(c1)CCN2C1CCN(CCc2cnccn2)CC1 [Example 67, 1-(1-pyrazinylethylpiperidin-4-yl)indoline]
9.37	8.49	NC(=O)NCc1ccc2c(c1)N(C1CCN(CCc3ccc(F)cc3)CC1)CC2 [Example 161, 1-[1-(4-fluorophenethyl)piperidin-4-yl]-6-ureidomethylindoline]
7.82	9.77	O/N=C/c1ccc2c(c1)N(C1CCN(CCc3ccc(F)cc3)CC1)CC2 [Example 131, 1-[1-(4-fluorophenethyl)piperidin-4-yl]-6-hydroxyiminomethylindoline]

SMILES	pKi (serotonin 2 receptor)	pKi (serotonin 1A receptor)
c1ccc2c(c1)CCN2C1CCN(CCc2c[nH]c3ccccc23)CC1 [Example 62, 1-{1-[(indol-3-yl)ethyl]-piperidin-4-yl}indoline]	8.13	8.21
OC1(c2ccc3c(c2)N(C2CCN(CCc4ccc(F)cc4)CC2)CC3)CCCC1 [Example 141, 1-[1-(4-fluorophenethyl)piperidin-4-yl]-6-(1-hydroxycyclopentyl)indoline]	6.47	8.52
COc1ccc(CCN2CCC(N3CCc4ccc(OC)cc43)CC2)cc1 [Example 228, 1-[1-(4-methoxyphenethyl)piperidin-4-yl]-6-methoxyindoline]	< 6.70	9.47
Cn1cccc1-c1ccc2ccn(C3CCN(CCc4ccc(F)cc4)CC3)c2c1 [Example 287, 1-[1-(4-fluorophenethyl)piperidin-4-yl]-6-(1-methylpyrrol-2-yl)indole]	< 6.70	10.00
